Broadly, the IC50 is the concentration that inhibits the measured activity by half. The low end stands for greater potency in that assay, the high end for weaker potency in that assay. The Ki is the equilibrium dissociation constant of an inhibitor or competing ligand from its target. As a reminder, the inhibition is the change of the read-out against control, counted positive when it falls. A high value points to a response far below the control.

Here are results for 12 compounds from ChEMBL document CHEMBL5107999, “Synthesis and biological evaluation of 4-hydroxy-methylpiperidinyl-N-benzyl-acylarylhydrazone hybrids designed as novel multifunctional drug candidates for Alzheimer's disease” (Bioorg Med Chem, 2022).

Series [1] in a line: Selectivity ratio, ratio of IC50 for equine serum BuChE to IC50 for Electrophorus electricus AchE.
In another series the test system is HT-29. Kind of series: Cytotoxicity against human HT-29 cells assessed as reduction in cell viability upto 30 uM incubated for 24 hrs by calcein/propidium iodide assay. The class given is toxicity, cell-based. The conditions noted are these: ht-29, 24 h.
The next series has as its target Cholinesterase (Equus caballus, UniProt P81908). Description: Inhibition of equine serum BuChE using butyrylthiocholine as substrate preincubated for 10 mins followed by substrate addition by spectrophotometric based Ellman's method.
The target in series [2] is T1, Acetylcholinesterase (Electrophorus electricus, UniProt O42275). Description: Inhibition of Electrophorus electricus AchE using acetylthiocholine iodide as substrate preincubated for 10 mins followed by substrate addition by spectrophotometric based Ellman's method. (Ellman's reagent forms a yellow product with free thiols.)
T1 sequence (O42275 whole entry): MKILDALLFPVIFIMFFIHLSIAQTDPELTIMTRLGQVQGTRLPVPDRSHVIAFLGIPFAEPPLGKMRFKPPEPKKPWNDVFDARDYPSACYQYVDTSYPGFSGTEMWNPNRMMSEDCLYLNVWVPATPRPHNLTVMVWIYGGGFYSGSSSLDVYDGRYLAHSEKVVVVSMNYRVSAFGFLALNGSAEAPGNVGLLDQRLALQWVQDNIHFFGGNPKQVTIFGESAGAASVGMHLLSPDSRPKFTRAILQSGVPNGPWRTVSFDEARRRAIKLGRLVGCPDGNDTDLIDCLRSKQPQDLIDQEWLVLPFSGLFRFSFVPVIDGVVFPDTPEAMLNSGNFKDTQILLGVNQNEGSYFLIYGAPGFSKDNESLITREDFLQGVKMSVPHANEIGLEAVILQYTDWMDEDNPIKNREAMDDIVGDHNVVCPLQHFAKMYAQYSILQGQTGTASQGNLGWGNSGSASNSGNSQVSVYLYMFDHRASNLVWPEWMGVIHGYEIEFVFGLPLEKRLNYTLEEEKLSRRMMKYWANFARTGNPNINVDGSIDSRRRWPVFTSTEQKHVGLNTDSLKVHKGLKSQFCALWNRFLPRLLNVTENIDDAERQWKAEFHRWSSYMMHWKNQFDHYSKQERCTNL
Series [3] deals with SH-SY5Y. Description: Cytotoxicity against human SH-SY5Y cells assessed as reduction in cell viability at 20 to 80 uM incubated for 24 hrs by MTT assay. It is filed as toxicity, cell-based. The following applies: dose 20-80 µM. A general note: Tetrazolium dyes change colour on reduction, which living cells bring about.
Series [4] has as its target T1, Acetylcholinesterase. Kind of series: Inhibition of Electrophorus electricus AchE assessed as inhibition constant.
The target in series [5] is Acetylcholinesterase (Electrophorus electricus) (UniProt O42275). Kind of series: Inhibition of Electrophorus electricus AchE using acetylthiocholine iodide as substrate at 30 uM preincubated for 10 mins followed by substrate addition by spectrophotometric based Ellman's method.
Acetylcholinesterase (Electrophorus electricus), sequence (O42275 24-633 limits assumed): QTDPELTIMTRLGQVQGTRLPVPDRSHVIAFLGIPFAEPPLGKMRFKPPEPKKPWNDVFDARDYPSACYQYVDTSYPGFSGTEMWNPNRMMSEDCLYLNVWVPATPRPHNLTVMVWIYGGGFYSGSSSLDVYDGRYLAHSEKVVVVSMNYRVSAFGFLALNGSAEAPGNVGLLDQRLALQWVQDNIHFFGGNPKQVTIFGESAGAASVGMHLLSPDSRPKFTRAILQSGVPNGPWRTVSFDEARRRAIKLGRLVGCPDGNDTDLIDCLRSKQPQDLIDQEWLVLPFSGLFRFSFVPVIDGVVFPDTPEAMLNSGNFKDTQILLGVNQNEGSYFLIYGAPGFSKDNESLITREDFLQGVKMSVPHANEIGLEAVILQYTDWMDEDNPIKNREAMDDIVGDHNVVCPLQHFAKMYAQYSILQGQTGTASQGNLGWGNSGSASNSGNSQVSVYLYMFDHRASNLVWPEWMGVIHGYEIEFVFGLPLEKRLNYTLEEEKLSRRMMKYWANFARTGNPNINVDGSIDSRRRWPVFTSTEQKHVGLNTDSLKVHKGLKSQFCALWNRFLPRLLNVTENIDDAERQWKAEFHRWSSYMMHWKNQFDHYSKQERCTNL
Series [6] deals with SH-SY5Y. Description: Neuroprotective activity against t-BOOH induced neurotoxicity in human SH-SY5Y cells assessed as inhibition of ROS formation at 10 uM incubated for 30 mins by H2DCF-DA fluorescence assay. The class given is functional, cell-based.
In series [7] the test system is SH-SY5Y. Description: Antioxidant activity against t-BOOH induced neurotoxicity in human SH-SY5Y cells at 10 uM. It is filed as functional.
In series [8] the test system is SH-SY5Y. Kind of series: Cytotoxicity against human SH-SY5Y cells assessed as reduction in cell viability upto 40 uM incubated for 24 hrs by MTT assay. It is filed as toxicity, cell-based.
Series [9] relates to SH-SY5Y. Kind of series: Neuroprotective activity against t-BOOH induced neurotoxicity in human SH-SY5Y cells assessed as inhibition of ROS formation at 2.5 to 10 uM incubated for 30 mins by H2DCF-DA fluorescence assay. The class given is functional, cell-based. The conditions noted are these: dose 2.5-10 µM.
In series [10] the test system is SH-SY5Y. Description: Neuroprotective activity against t-BOOH induced neurotoxicity in human SH-SY5Y cells assessed as increase in cell viability at 2.5 to 10 uM incubated for 4 hrs by MTT assay. The following applies: dose 2.5-10 µM. It is filed as functional, cell-based.
Series [11] deals with SH-SY5Y. Description: Neuroprotective activity against amyloid beta (1 to 42) induced neurotoxicity in human SH-SY5Y cells assessed as increase in cell viability at 5 to 10 uM incubated for 4 hrs by MTT assay. The class given is functional, cell-based. The following applies: dose 5-10 µM.
The subject of series [12] is SH-SY5Y. Description: Antioxidant activity against t-BOOH induced neurotoxicity in human SH-SY5Y cells. It is filed as functional, cell-based.
In series [13] the target is Amyloid-beta precursor protein (Homo sapiens) (UniProt P05067). Kind of series: Inhibition of amyloid beta (1 to 42) (unknown origin) self aggregation at 75 uM by Thioflavin T based fluorescence assay.
Amyloid-beta precursor protein (Homo sapiens), sequence (P05067 whole entry): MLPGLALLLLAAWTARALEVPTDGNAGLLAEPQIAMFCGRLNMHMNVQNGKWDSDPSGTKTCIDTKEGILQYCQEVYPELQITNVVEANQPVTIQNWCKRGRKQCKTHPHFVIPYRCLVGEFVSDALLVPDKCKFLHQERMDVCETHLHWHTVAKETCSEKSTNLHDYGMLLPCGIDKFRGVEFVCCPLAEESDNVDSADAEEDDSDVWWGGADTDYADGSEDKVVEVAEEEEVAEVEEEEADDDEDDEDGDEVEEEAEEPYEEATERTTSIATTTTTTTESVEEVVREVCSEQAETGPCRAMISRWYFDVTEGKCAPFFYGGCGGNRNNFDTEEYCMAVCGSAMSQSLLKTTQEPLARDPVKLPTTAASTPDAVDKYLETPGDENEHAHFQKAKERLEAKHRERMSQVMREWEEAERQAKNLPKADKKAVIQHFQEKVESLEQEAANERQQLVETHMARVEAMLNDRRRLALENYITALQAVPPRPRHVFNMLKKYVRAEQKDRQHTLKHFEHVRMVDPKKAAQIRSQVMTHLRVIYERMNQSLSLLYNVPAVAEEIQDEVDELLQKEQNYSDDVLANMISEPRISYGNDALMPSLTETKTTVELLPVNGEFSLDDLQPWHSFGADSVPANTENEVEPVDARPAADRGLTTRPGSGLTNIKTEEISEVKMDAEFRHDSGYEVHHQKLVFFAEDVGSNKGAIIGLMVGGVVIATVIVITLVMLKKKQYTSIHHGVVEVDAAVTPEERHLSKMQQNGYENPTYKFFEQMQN

Calls of active or inactive are those of the source. The rule behind the calls is not given here.

Cholinesterase, sequence (P81908 whole entry): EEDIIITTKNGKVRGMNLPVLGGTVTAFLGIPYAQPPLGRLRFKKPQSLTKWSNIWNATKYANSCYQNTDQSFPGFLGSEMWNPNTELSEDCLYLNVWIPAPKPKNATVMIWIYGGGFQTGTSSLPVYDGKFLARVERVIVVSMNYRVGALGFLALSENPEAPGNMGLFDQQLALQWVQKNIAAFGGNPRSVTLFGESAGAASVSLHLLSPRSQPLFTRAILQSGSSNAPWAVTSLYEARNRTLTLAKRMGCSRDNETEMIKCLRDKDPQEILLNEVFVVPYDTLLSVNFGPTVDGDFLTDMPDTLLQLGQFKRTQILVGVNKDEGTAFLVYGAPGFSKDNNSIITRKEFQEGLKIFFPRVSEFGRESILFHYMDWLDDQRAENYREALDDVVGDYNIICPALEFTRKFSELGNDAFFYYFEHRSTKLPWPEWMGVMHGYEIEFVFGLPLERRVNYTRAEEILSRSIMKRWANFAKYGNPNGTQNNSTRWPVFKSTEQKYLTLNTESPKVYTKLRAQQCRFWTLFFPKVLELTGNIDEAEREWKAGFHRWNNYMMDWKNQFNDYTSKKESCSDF

On to `O=C(N/N=C/c1cccc(O)c1)c1ccc(CN2CCC(CO)CC2)cc1`, for which, in series [1], the Ratio IC50 is over 2.2. Further, the Activity entry with HT-29 was “Non-Toxic”. Also, the IC50 at Cholinesterase was over 30 µM; at Acetylcholinesterase [2] it was 13.9 µM.
The like results for `O=C(N/N=C/c1ccccc1F)c1ccc(CN2CCC(CO)CC2)cc1` were, in that order, over 2.5, “Non-Toxic”, over 30 µM and 12 µM.
The like results for `COc1ccc(/C=N/NC(=O)c2ccc(CN3CCC(CO)CC3)cc2)cc1` were, in that order, over 2, “Non-Toxic”, over 30 µM and 15.3 µM.
Consider `O=C(N/N=C/c1ccc(N2CCCCC2)cc1)c1ccc(CN2CCC(CO)CC2)cc1`, for which the Ratio IC50 in series [1] was over 2.5. Moreover, the Activity result in the series on HT-29 is given as “Non-Toxic”; in the series on SH-SY5Y [3], “Toxic”. Besides, the IC50 against Cholinesterase is over 30 µM; on Acetylcholinesterase [2], 12 µM. Besides, at Acetylcholinesterase [4], the Ki came out at 6.24 µM.
Turning to `O=C(N/N=C/c1cccc(F)c1)c1ccc(CN2CCC(CO)CC2)cc1`, the Ratio IC50 in series [1] was over 3.6. Further, in the series with HT-29, the Activity entry is “Non-Toxic”. Further, the values for the IC50 against Cholinesterase and at Acetylcholinesterase [2] were over 30 µM and 8.2 µM, respectively.
On the same counts, the results for `O=C(N/N=C/c1ccc(F)cc1)c1ccc(CN2CCC(CO)CC2)cc1` are over 1.1, “Non-Toxic”, over 30 µM and 26.4 µM.
On to `O=C(N/N=C/c1ccc(O)cc1)c1ccc(CN2CCC(CO)CC2)cc1`, for which, in series [1], the Ratio IC50 is over 1.2. Besides, in the series with HT-29, the Activity result was “Non-Toxic”. In series [5], this compound returned an inhibition of 45%. Besides, the IC50 at Cholinesterase was over 30 µM; against Acetylcholinesterase [2], 25.1 µM.
Regarding `O=C(N/N=C/c1ccccc1Cl)c1ccc(CN2CCC(CO)CC2)cc1`, in series [1], the Ratio IC50 worked out at 1.4. Also, the Activity entry in the series with HT-29 is listed as “Non-Toxic”. Moreover, the IC50 against Cholinesterase was 12.9 µM; on Acetylcholinesterase [2], 9 µM.
In the case of `O=C(N/N=C/c1ccc(Cl)cc1)c1ccc(CN2CCC(CO)CC2)cc1`, in the series on SH-SY5Y [6], the result was Active. Also, the inhibition at 10 µM with SH-SY5Y [7] was 24.5%. Further, the Ratio IC50 in [1] was over 5.4. For the same compound, the Activity entry in the series with SH-SY5Y [8] and with HT-29 was “Non-Toxic” in each case. The IC50 was over 30 µM against Cholinesterase and 5.6 µM at Acetylcholinesterase [2]. Moreover, on Acetylcholinesterase [4], the Ki came out at 3.55 µM.
Regarding `O=C(N/N=C/c1ccccc1O)c1ccc(CN2CCC(CO)CC2)cc1`, the inhibition at 10 µM in the series with SH-SY5Y [7] was determined as 67.1%. In series [1], the Ratio IC50 is over 5.1. Moreover, the results for the Activity entry in the series with HT-29 and in the series on SH-SY5Y [3] were “Non-Toxic” and “Toxic”, respectively. The result in the series on SH-SY5Y [9], in the series with SH-SY5Y [10] and in the series with SH-SY5Y [11] was Active. The figures for the IC50 against Cholinesterase, against Acetylcholinesterase [2] and in the series on SH-SY5Y [12] were over 30 µM, 5.9 µM and 7.45 µM, respectively. Further, the Ki on Acetylcholinesterase [4] is 3.81 µM. In addition, the inhibition in series [13] was 30%.
For the compound `COc1ccccc1/C=N/NC(=O)c1ccc(CN2CCC(CO)CC2)cc1`, the Ratio IC50 in series [1] turned out to be 1. Besides, the Activity entry with HT-29 is on record as “Non-Toxic”. The values for the half-inhibitory concentration (IC50) against Cholinesterase and at Acetylcholinesterase [2] were 12.9 µM and 13.5 µM, respectively.
For `O=C(N/N=C/c1cccc(Cl)c1)c1ccc(CN2CCC(CO)CC2)cc1`, the outcome with SH-SY5Y [6] was Active. The compound further registered an inhibition at 10 µM in the series with SH-SY5Y [7] of 46%. For the same compound, the Ratio IC50 in series [1] turned out to be 15. For the same compound, the Activity entry in the series with SH-SY5Y [8] and in the series on HT-29 was “Non-Toxic” throughout. In addition, the IC50 against Cholinesterase worked out at 49.8 µM; on Acetylcholinesterase [2], 3.3 µM. The Ki on Acetylcholinesterase [4] was found to be 1.95 µM.
